The test concerns the target T1, GABA A α5 (α5β3γ2) (Homo sapiens, UniProt P18507+P31644).
T1 construct: expressed in transfected cells; host or cells: HEK293 (transiently transfected), membranes
In words: [3H]flumazenil competition binding assay, human GABA A α5 receptors in HEK293 cells. To be noted: competition for [3H]flumazenil (0.5 nM); HEK293 cells expressing human (transiently transfected) receptors; means of two determinations; read-out: hKi GABA A α5. On the procedure:
Membrane Preparation and Binding Assay
The affinity of compounds at GABA A receptor subtypes was measured by competition for [3H]flumazenil (85 Ci/mmol; Roche) binding to HEK293 cells expressing rat (stably transfected) or human (transiently transfected) receptors of composition α1β3γ2, α2β3γ2, α3β3γ2 and α5β3γ2.
Cell pellets were suspended in Krebs-tris buffer (4.8 mM KCl, 1.2 mM CaCl2, 1.2 mM MgCl2, 120 mM NaCl, 15 mM Tris; pH 7.5; binding assay buffer), homogenized by polytron for ca. 20 sec on ice and centrifuged for 60 min at 4° C. (50000 g; Sorvall, rotor: SM24=20000 rpm). The cell pellets were resuspended in Krebs-tris buffer and homogenized by polytron for ca. 15 sec on ice. Protein was measured (Bradford method, Bio-Rad) and aliquots of 1 mL were prepared and stored at −80° C.
Radioligand binding assays were carried out in a volume of […] (96-well plates) which contained […] of cell membranes, [3H]flumazenil at a concentration of 1 nM for α1, α2, α3 subunits and 0.5 nM for α5 subunits and the test compound in the range of […]. Nonspecific binding was defined by 10^−5 M diazepam and typically represented less than 5% of the total binding. Assays were incubated to equilibrium for 1 hour at 4° C. and harvested onto GF/C uni-filters (Packard) by filtration using a Packard harvester and washing with ice-cold wash buffer (50 mM Tris; pH 7.5). After drying, filter-retained radioactivity was detected by liquid scintillation counting. Ki values were calculated using Excel-Fit (Microsoft) and are the means of two determinations.
Representative test results, obtained by the above described assay measuring binding affinity to HEK293 cells expressing human (h) receptors, are shown in table 1 below.

pKi: −log10 of the molar value.

Consider `O=C(NCC1CC1)c1ccc(OCc2c(-c3ccc(F)c(F)c3)noc2CO)nc1` [Example 30, N-Cyclopropylmethyl-6-[3-(3,4-difluoro-phenyl)-5-hydroxymethyl-isoxazol-4-ylmethoxy]-nicotinamide], for which the pKi is 8.40. With `O=C(NCC(F)(F)F)c1ccc(OCc2c(-c3ccc(F)c(F)c3)noc2CO)nc1` [Example 31, 6-[3-(3,4-Difluoro-phenyl)-5-hydroxymethyl-isoxazol-4-ylmethoxy]-N-(2,2,2-trifluoro-ethyl)-nicotinamide] the figure was 8.57; with `CC(NC(=O)c1ccc(OCc2c(-c3ccc(F)c(F)c3)noc2CO)nc1)C(F)(F)F` (stereo not drawn) [Example 32, 6-[3-(3,4-Difluoro-phenyl)-5-hydroxymethyl-isoxazol-4-ylmethoxy]-N-(2,2,2-trifluoro-1-methyl-ethyl)-nicotinamide], 8.74. With `O=C(NC1CC1)c1ccc(OCc2c(-c3ccc(F)c(F)c3)noc2CO)nc1` [Example 33, N-Cyclopropyl-6-[3-(3,4-difluoro-phenyl)-5-hydroxymethyl-isoxazol-4-ylmethoxy]-nicotinamide] the figure was 8.51; with `CC(C)(CO)NC(=O)c1ccc(OCc2c(-c3ccc(F)c(F)c3)noc2CO)nc1` [Example 34, 6-[3-(3,4-Difluoro-phenyl)-5-hydroxymethyl-isoxazol-4-ylmethoxy]-N-(2-hydroxy-1,1-dimethyl-ethyl)-nicotinamide], 7.87. As to `O=C(NCC(F)(F)C(F)(F)F)c1ccc(OCc2c(-c3ccc(F)c(F)c3)noc2CO)nc1` [Example 35, 6-[3-(3,4-Difluoro-phenyl)-5-hydroxymethyl-isoxazol-4-ylmethoxy]-N-(2,2,3,3,3-pentafluoro-propyl)-nicotinamide], the pKi was 8.17.

`COCCNC(=O)c1ccc(OCc2c(-c3ccc(F)c(F)c3)noc2CO)nc1` [Example 36, 6-[3-(3,4-Difluoro-phenyl)-5-hydroxymethyl-isoxazol-4-ylmethoxy]-N-(2-methoxy-ethyl)-nicotinamide]: the pKi is 8.11. Consider `CC[C@H](CO)NC(=O)c1ccc(OCc2c(-c3ccc(F)c(F)c3)noc2CO)nc1` [Example 37, 6-[3-(3,4-Difluoro-phenyl)-5-hydroxymethyl-isoxazol-4-ylmethoxy]-N-([R]-1-hydroxymethyl-propyl)-nicotinamide], for which the pKi was 8.36.

For `CC[C@@H](CO)NC(=O)c1ccc(OCc2c(-c3ccc(F)c(F)c3)noc2CO)nc1` [Example 38, 6-[3-(3,4-Difluoro-phenyl)-5-hydroxymethyl-isoxazol-4-ylmethoxy]-N-([S]-1-hydroxymethyl-propyl)-nicotinamide], the pKi was 8.89.

Consider `Cn1cc(NC(=O)c2ccc(OCc3c(-c4ccc(F)c(F)c4)noc3CO)nc2)cn1` [Example 39, 6-[3-(3,4-Difluoro-phenyl)-5-hydroxymethyl-isoxazol-4-ylmethoxy]-N-(1-methyl-1H-pyrazol-4-yl)-nicotinamide], for which the pKi is 8.68.

Turning to `CC(C)(C)NC(=O)c1ccc(OCc2c(-c3ccc(F)c(F)c3)noc2CO)nc1` [Example 40, N-tert-Butyl-6-[3-(3,4-difluoro-phenyl)-5-hydroxymethyl-isoxazol-4-ylmethoxy]-nicotinamide], the pKi is 7.93.

Take `O=C(NN1CCOCC1)c1ccc(OCc2c(-c3ccc(F)c(F)c3)noc2CO)nc1` [Example 41, 6-[3-(3,4-Difluoro-phenyl)-5-hydroxymethyl-isoxazol-4-ylmethoxy]-N-morpholin-4-yl-nicotinamide]: the pKi is 8.96. The same measure for `O=C(NN1CCCC1)c1ccc(OCc2c(-c3ccc(F)c(F)c3)noc2CO)nc1` [Example 42, 6-[3-(3,4-Difluoro-phenyl)-5-hydroxymethyl-isoxazol-4-ylmethoxy]-N-pyrrolidin-1-yl-nicotinamide]: 8.35; for `O=C(c1ccc(OCc2c(-c3ccccn3)noc2CO)nc1)N1CCS(=O)(=O)CC1` [Example 43, (1,1-Dioxo-1,6-thiomorpholin-4-yl)-[6-(5-hydroxymethyl-3-pyridin-2-yl-isoxazol-4-ylmethoxy)-pyridin-3-yl]-methanone]: 7.97. The same measure for `CC(C)NC(=O)c1ccc(OCc2c(-c3ccccn3)noc2CO)nc1` [Example 44, 6-(5-Hydroxymethyl-3-pyridin-2-yl-isoxazol-4-ylmethoxy)-N-isopropyl-nicotinamide]: 9.15; for `O=C(NC1CCOC1)c1ccc(OCc2c(-c3ccccn3)noc2CO)nc1` (stereo not drawn) [Example 45, 6-(5-Hydroxymethyl-3-pyridin-2-yl-isoxazol-4-ylmethoxy)-N-(tetrahydrofuran-3-yl)-nicotinamide]: 8.74; for `CN(C)NC(=O)c1ccc(OCc2c(-c3ccccn3)noc2CO)nc1` [Example 46, 6-(5-Hydroxymethyl-3-pyridin-2-yl-isoxazol-4-ylmethoxy)-nicotinic acid N′,N′-dimethyl-hydrazide]: 8.60. With `O=C(NC1CCOCC1)c1ccc(OCc2c(-c3ccccn3)noc2CO)nc1` [Example 47, 6-(5-Hydroxymethyl-3-pyridin-2-yl-isoxazol-4-ylmethoxy)-N-(tetrahydropyran-4-yl)-nicotinamide] the figure was 8.96. In the case of `O=C(NN1CCOCC1)c1ccc(OCc2c(-c3ccccn3)noc2CO)nc1` [Example 48, 6-(5-Hydroxymethyl-3-pyridin-2-yl-isoxazol-4-ylmethoxy)-N-morpholin-4-yl-nicotinamide], the pKi is 8.77. As for `CCCCc1noc(CO)c1COc1ccc(C(=O)NC(C)C)cn1` [Example 49, 6-(3-Butyl-5-hydroxymethyl-isoxazol-4-ylmethoxy)-N-isopropyl-nicotinamide], the pKi was 7.80. With `CCCCc1noc(CO)c1COc1ccc(C(=O)NC2(C)COC2)cn1` [Example 50, 6-(3-Butyl-5-hydroxymethyl-isoxazol-4-ylmethoxy)-N-(3-methyloxetan-3-yl)-nicotinamide] the figure was 8.06. With `CCCCc1noc(CO)c1COc1ccc(C(=O)NCC(F)(F)F)cn1` [Example 51, 6-(3-Butyl-5-hydroxymethyl-isoxazol-4-ylmethoxy)-N-(2,2,2-trifluoroethyl)-nicotinamide] the figure was 7.99; with `CCCCc1noc(CO)c1COc1ccc(C(=O)NC2CCC2)cn1` [Example 52, 6-(3-Butyl-5-hydroxymethyl-isoxazol-4-ylmethoxy)-N-cyclobutyl-nicotinamide], 7.86; with `CCCCc1noc(CO)c1COc1ccc(C(=O)N2CCC2)cn1` [Example 53, Azetidin-1-yl-[6-(3-Butyl-5-hydroxymethyl-isoxazol-4-ylmethoxy)-pyridin-3-yl]-methanone], 7.29.

As for `O=C(c1ccc(OCc2c(-c3ccccn3)noc2CO)nc1)N1CCOCC1` [Example 54, [6-(5-Hydroxymethyl-3-pyridin-2-yl-isoxazol-4-ylmethoxy)-pyridin-3-yl]-morpholin-4-yl-methanone], the pKi is 7.17. The same measure for `CCCCc1noc(CO)c1COc1ccc(C(=O)N2CCS(=O)(=O)CC2)cn1` [Example 55, [6-(3-Butyl-5-hydroxymethyl-isoxazol-4-ylmethoxy)-pyridin-3-yl]-(1,1-dioxo-thiomorpholin-4-yl)-methanone]: 7.30; for `O=C(c1ccc(OCc2c(-c3ccc(F)cn3)noc2CO)nc1)N1CCS(=O)(=O)CC1` [Example 56, (1,1-Dioxo-1,6-thiomorpholin-4-yl)-{6-[3-(5-fluoro-pyridin-2-yl)-5-hydroxymethyl-isoxazol-4-ylmethoxy]-pyridin-3-yl}-methanone]: 7.87.

These data come from patent US8222246B2, “Substituted isoxazoles” (Hoffmann-La Roche Inc., priority 2009, dated 2012).
